From ChEMBL document CHEMBL1156699, “C-terminal constrained phenylalanine as a pharmacophoric unit in peptide-based proteasome inhibitors” (Eur J Med Chem, 2008)
Residues, ends and D or L forms follow the SMILES beside them. *: point of attachment. Cbz = O=C(OCc1ccccc1)*

Assays:
[1] = Inhibition of trypsin like 20S proteasome activity in lymphoblastoid cells; format: cell-based
[2] = Inhibition of chymotrypsin like 20S proteasome activity in lymphoblastoid cells; format: cell-based
[3] = Inhibition of caspase like 20S proteasome activity in lymphoblastoid cells; format: cell-based
[4] = In vivo inhibition of trypsin like 20S proteasome; format: organism-based
[5] = In vivo inhibition of chymotrypsin like 20S proteasome; format: organism-based
[6] = In vivo inhibition of caspase like 20S proteasome; format: organism-based
[7] = Half life in human plasma after 360 mins; format: ADME, cell-free

CCOC(=O)/C(=C/c1ccccc1)NC(=O)[C@H](CC(C)C)NC(=O)[C@H](CC(C)C)NC(=O)[C@H](CC(C)C)NC(=O)c1cccc(O)c1C
IC50 [1]: 1320 nM | IC50 [2]: 0.894 µM | IC50 [3]: > 10000 nM | IC50 [4]: 1820 nM | IC50 [5]: 1040 nM | IC50 [6]: > 10 µM | half-life [7]: > 360 min

CCOC(=O)/C=C/[C@H]1Cc2ccccc2CN1C(=O)[C@H](CC(C)C)NC(=O)[C@H](CC(C)C)NC(=O)[C@H](CC(C)C)NC(=O)c1cccc(O)c1C
IC50 [1]: > 10000 nM | IC50 [2]: 8.45 µM | IC50 [3]: 952 nM | IC50 [6]: 1.41 µM | half-life [7]: > 360 min

CC(C)C[C@@H](C=O)NC(=O)[C@H](CC(C)C)NC(=O)[C@H](CC(C)C)NC(=O)OCc1ccccc1 [MG-132] (Cbz-Leu-Leu-Leu-aldehyde)
IC50 [1]: 1080 nM | IC50 [2]: 0.002 µM | IC50 [3]: > 10000 nM

CC[C@H](C)[C@H](NC(=O)[C@H]([C@@H](C)CC)N(C)C(C)=O)C(=O)N[C@H](C(=O)N[C@@H](CC(C)C)C(=O)[C@@]1(C)CO1)[C@@H](C)O [EPOXOMYCIN]
IC50 [2]: 0.005 µM

CCOC(=O)/C=C/[C@@H]1Cc2ccccc2CN1C(=O)[C@H](CO)NC(=O)[C@@H](NC(=O)c1cccc(O)c1C)C(C)C
IC50 [1]: 2790 nM | IC50 [2]: > 10 µM | IC50 [3]: 3920 nM

CCOC(=O)/C=C/[C@H]1Cc2ccccc2CN1C(=O)[C@H](CC(C)C)NC(=O)[C@H](CC(C)C)NC(=O)c1cccc(O)c1C
IC50 [1]: > 10000 nM | IC50 [2]: 3.73 µM | IC50 [3]: 1480 nM | IC50 [6]: 2.05 µM | half-life [7]: > 360 min

CCOC(=O)/C(=C/c1ccccc1)NC(=O)[C@H](CC(C)C)NC(=O)[C@H](CC(C)C)NC(=O)c1cccc(O)c1C
IC50 [1]: 1760 nM | IC50 [2]: 1.19 µM | IC50 [3]: > 10000 nM | IC50 [4]: 2180 nM | IC50 [5]: 1550 nM | IC50 [6]: > 10 µM | half-life [7]: > 360 min

CCOC(=O)/C=C/[C@H](CC(C)C)NC(=O)[C@H](CO)NC(=O)[C@@H](NC(=O)c1cccc(O)c1C)C(C)C
IC50 [1]: 33 nM | IC50 [2]: > 10 µM | IC50 [3]: > 10000 nM | IC50 [4]: 50 nM | IC50 [5]: > 10000 nM | IC50 [6]: > 10 µM | half-life [7]: > 360 min

CCOC(=O)/C=C/[C@@H]1Cc2ccccc2CN1C(=O)[C@H](CC(C)C)NC(=O)[C@H](CC(C)C)NC(=O)c1cccc(O)c1C
IC50 [1]: 5840 nM | IC50 [2]: 2.06 µM | IC50 [3]: 2140 nM

CCOC(=O)/C=C/[C@H]1Cc2ccccc2CN1C(=O)[C@H](CC(C)C)NC(=O)[C@H](CO)NC(=O)[C@@H](NC(=O)c1cccc(O)c1C)C(C)C
IC50 [1]: 7950 nM | IC50 [2]: > 10 µM | IC50 [3]: 2350 nM

CCOC(=O)/C(=C/c1ccccc1)NC(=O)[C@H](CO)NC(=O)[C@@H](NC(=O)c1cccc(O)c1C)C(C)C
IC50 [1]: 183 nM | IC50 [2]: > 10 µM | IC50 [3]: > 10000 nM | IC50 [4]: 231 nM | IC50 [5]: > 10000 nM | IC50 [6]: > 10 µM | half-life [7]: > 360 min

CCOC(=O)/C=C/[C@@H]1Cc2ccccc2CN1C(=O)[C@H](CC(C)C)NC(=O)[C@H](CO)NC(=O)[C@@H](NC(=O)c1cccc(O)c1C)C(C)C
IC50 [1]: > 10000 nM | IC50 [2]: > 10 µM | IC50 [3]: 2500 nM

CCOC(=O)/C=C/[C@@H]1Cc2ccccc2CN1C(=O)[C@H](CC(C)C)NC(=O)[C@H](CC(C)C)NC(=O)[C@H](CC(C)C)NC(=O)c1cccc(O)c1C
IC50 [1]: > 10000 nM | IC50 [2]: 5.29 µM | IC50 [3]: 1730 nM

CCOC(=O)/C=C/[C@H]1Cc2ccccc2CN1C(=O)[C@H](CO)NC(=O)[C@@H](NC(=O)c1cccc(O)c1C)C(C)C
IC50 [1]: 3670 nM | IC50 [2]: > 10 µM | IC50 [3]: 2960 nM

CCOC(=O)/C(=C/c1ccccc1)NC(=O)[C@H](CC(C)C)NC(=O)[C@H](CO)NC(=O)[C@@H](NC(=O)c1cccc(O)c1C)C(C)C
IC50 [1]: 79 nM | IC50 [2]: > 10 µM | IC50 [3]: > 10000 nM | IC50 [4]: 92 nM | IC50 [5]: > 10000 nM | IC50 [6]: > 10 µM | half-life [7]: > 360 min
